From PMC6112376, “Comprehensive Analyses and Prioritization of Tox21 10K Chemicals Affecting Mitochondrial Function by in-Depth Mechanistic Studies” (Environmental Health Perspectives, 2018)
Counter-ions that a name gives are not always drawn. Like-named read-outs stand apart in the source and are kept apart here.

Tests used:
rat primary hepatocytes [1] = tested on: rat primary hepatocytes
HepG2 cells [2] = settings: cited from earlier work
HepG2 cells [3] = assay: cells; settings: Homo sapiens; for IC50: HepG2, read-out: MMP assays IC50 (µM) HepG2; for Emax: HepG2, read-out: MMP assays efficacy (%) HepG2
rat primary hepatocytes [4] = assay: MMP assay in rat primary hepatocytes; settings: for IC50: Rattus norvegicus, Hepatocyte, read-out: MMP assays IC50 (µM) Rat Hepatocytes
[5] = read-out: MMP assays IC50 (µM), qHTS-HepG2
[6] = read-out: MMP assays IC50 (µM) qHTS-HepG2

SMILES	MMP assays efficacy (%) Rat Hepatocytes (rat primary hepatocytes [1])	MMP assays efficacy (%) qHTS-HepG2 (HepG2 cells [2]) [%]	IC50 (HepG2 cells [2]; [5]) [µM]	IC50 (HepG2 cells [3]) [µM]	Emax (HepG2 cells [3]) [%]	MMP assays IC50 (µM) Rat Hepatocytes (rat primary hepatocytes [4])	IC50 (rat primary hepatocytes [4]) [µM]	IC50 (HepG2 cells [2]; [6]) [µM]
CS(=O)(=O)c1ccc(C(=O)C2C(=O)CCCC2=O)c([N+](=O)[O-])c1 [Mesotrione]	inactive	-75±17	18 ± 12	39.8	72	inactive		
Clc1ccc(C(c2ccc(Cl)cc2)C(Cl)(Cl)Cl)cc1 [p,p'-DDT]	inactive	-99±12	24.3 ± 2.74	30.8	69	inactive		
O=C1C(I)=CC(=C(c2cc(I)c(O)c(I)c2)c2ccccc2C(=O)O)C=C1I [Iodophthalein]	-96±3%	-95±6	5.31 ± 1.76	4.35	98		7.32 ± 0.6	
Oc1c(Cl)c(Cl)cc(Cl)c1Cl [2,3,5,6-Tetrachlorophenol]	-77±36%	-94±3		8.91	92		9.2 ± 2.96	6.42 ± 2.38
Clc1ccc(C(c2ccccc2Cl)C(Cl)(Cl)Cl)cc1 (stereo not shown) [o,p'-DDT]	inactive	-86±11	24 ± 12.1	25.1	101	inactive		
Cc1ccc2ccc3cccc4ccc1c2c34 [Compound 1-Methylpyrene]	-57±10%	-112±32		39.8	112		32.2 ± 7.36	43.2 ± 4.99
Cl[Si](Cl)(c1ccccc1)c1ccccc1 [Dichlorodiphenylsilane]	inactive	-106±4		22.4	109	inactive		13 ± 9.66
O=C(NC(=O)c1c(F)cccc1F)Nc1cc(Cl)c(OC(F)(F)C(F)C(F)(F)F)cc1Cl (stereo not shown) [Lufenuron]	-103±8%	-119±18	7.65 ± 0.7	14.1	100		45 ± 7.29	
CC[C@@]1(O)C[C@H](O[C@H]2C[C@H](N(C)C)[C@H](O[C@H]3C[C@H](O)[C@H](O[C@H]4CCC(=O)[C@H](C)O4)[C@H](C)O3)[C@H](C)O2)c2c(cc3c(c2O)C(=O)c2c(O)cccc2C3=O)[C@H]1C(=O)OC [Aclarubicin hydrochloride]	-49±12%	-70±15		2.45	39		6.89 ± 9.73	3.15 ± 2.82
COC1C(O)CC(OC2CC(Oc3cc4cc5c(c(O)c4c(O)c3C)C(=O)[C@@H](OC3CC(OC4CC(OC6CC(C)(O)C(OC(C)=O)C(C)O6)C(O)C(C)O4)C(O)C(C)O3)[C@H]([C@H](OC)C(=O)[C@@H](O)[C@@H](C)O)C5)OC(C)C2OC(C)=O)OC1C (stereo partly shown) [chromomycin]	inactive	-84±13		35.5	44	inactive		12.3 ± 0.84
CCN(CC)C(=O)[C@@H]1C=C2c3cccc4[nH]cc(c34)C[C@H]2N(C)C1 [Lysergide]	inactive	-54±2	9.03 ± 1.87	17.3	48	inactive		
Oc1ccc(Oc2ccccc2)cc1 [Compound 4-Phenoxyphenol]	inactive	-106±22		47.6	104	inactive		28 ± 10.6
ClC1=C(Cl)C2(Cl)C3C(Cl)C=CC3C1(Cl)C2(Cl)Cl (stereo not shown) [Heptachlor]	inactive		39.4 ± 17.9	31.6	87	inactive		
CN1C(=O)[C@@H](NC(=O)c2cc3ccccc3[nH]2)N=C(c2ccccc2)c2ccccc21 [Devazepide]	-50±14%	-81±7		10.9	63		15.6 ± 7.19	12.5 ± 5.62
Oc1ccc2ccccc2c1 [Compound 2-Naphthalenol]	-56±17%	-107±7		35.5	81		42.2 ± 19.8	50.1 ± 16
CN(C)c1ccc(C(=C2C=CC(=[N+](C)C)C=C2)c2ccc(N(C)C)cc2)cc1 [Gentian violet]	-70±14%	-92±4	0.08 ± 0.04	0.35	92		1.34 ± 0.11	
CO[C@H]1C[C@@H]2CC[C@@H](C)[C@@](O)(O2)C(=O)C(=O)N2CCCC[C@H]2C(=O)O[C@H]([C@H](C)C[C@@H]2CC[C@@H](OCCO)[C@H](OC)C2)CC(=O)[C@H](C)/C=C(\C)[C@@H](O)[C@@H](OC)C(=O)[C@H](C)C[C@H](C)/C=C/C=C/C=C/1C [Everolimus]	-38±9%	-96±20		27.5	92		13 ± 7.49	19.9 ± 2.83

SMILES	MMP assays efficacy (%) Rat Hepatocytes (rat primary hepatocytes [1])	MMP assays efficacy (%) qHTS-HepG2 (HepG2 cells [2]) [%]	IC50 (HepG2 cells [2]; [5]) [µM]	IC50 (HepG2 cells [3]) [µM]	Emax (HepG2 cells [3]) [%]	MMP assays IC50 (µM) Rat Hepatocytes (rat primary hepatocytes [4])	IC50 (rat primary hepatocytes [4]) [µM]	IC50 (HepG2 cells [2]; [6]) [µM]
Cc1ccc2c(c1N)C(=O)c1ccccc1C2=O [Compound 1-Amino-2-methylanthraquinone]	-85±28%	-82±1		2.51	92		5.28 ± 3.3	0.64 ± 0.08
O=C1c2cccc(O)c2C(=O)c2c(O)cccc21 [Danthron]	-40±18%	-78±3		15.5	91		5.97 ± 5.35	4.66 ± 1.19
O=C(NC(=O)c1c(F)cccc1F)Nc1ccc(Cl)c(Oc2ncc(C(F)(F)F)cc2Cl)c1 [Fluazuron]	-64±17%	-66±7	3.96 ± 2.31	12.3	83		9.83 ± 13.6	
NC(=O)N1C(=O)/C(=C(\O)c2cccs2)c2cc(Cl)ccc21 [Tenidap]	-96±13%	-111±5	12.5 ± 1.19	15.8	102		21.1 ± 7.88	
COc1cc(NS(C)(=O)=O)ccc1Nc1c2ccccc2nc2ccccc12 [Amsacrine hydrochloride]	-110±40%	-75±13		56.2	110		37.6 ± 3.06	10.3 ± 2.45
CCCSP(=O)(OCC)Oc1ccc(Br)cc1Cl (stereo not shown) [Profenofos]	-61±47%	-92±20	2.54 ± 1.84	6.15	84		13.2 ± 3.19	
CCCCCCc1ccc(-c2ccc(C#N)cc2)cc1 [4-Hexyl-4'-cyanobiphenyl]	-56±24%	-109±6		31.6	59		17.5 ± 15.6	42.5 ± 15.4
O=[N+]([O-])c1ccc2c3c(cccc13)CC2 [Compound 5-Nitroacenaphthene]	-78±25%	-82±23		56.2	50		24 ± 16.2	34.4 ± 20.4
O=S(=O)(c1ccc(Cl)cc1)c1cc(Cl)c(Cl)cc1Cl [Tetradifon]	-77±25%	-98±2	15.3 ± 7.43	17.8	96		12.1 ± 6.57	
O=c1c(O)c(-c2ccc(O)cc2)oc2cc(O)cc(O)c12 [Kaempferol]	-84±55%	-100±8	2.56 ± 3.04	6.76	96		24.1 ± 8.76	
O=C(CCc1ccc(O)cc1)c1c(O)cc(O)cc1O [Phloretin]	-74±26%	-107±12	4.26 ± 1.22	11.2	100		10.6 ± 4.98	
O=C1CN(/N=C/c2ccc(-c3ccc([N+](=O)[O-])cc3)o2)C(O)=N1 [Dantrolene sodium]	-108±32%	-85±8		3.46	73		15.5 ± 1.78	4.35 ± 1.73
CCCN(CCC)c1c([N+](=O)[O-])cc(C(F)(F)F)cc1[N+](=O)[O-] [Trifluralin]	-53±24%	-53±8	46.7 ± 9.14	39.8	78		32.6 ± 23.1	
CCOC(=O)C1(c2ccccc2)CCN(CCC(C#N)(c2ccccc2)c2ccccc2)CC1 [Diphenoxylate hydrochloride]	-81±36%	-56±8		17.3	71		19.4	20.7 ± 1.19
COC(=O)Nc1nc2ccc(C(=O)c3ccccc3)cc2[nH]1 [Mebendazole]	inactive	-70±10	2.45 ± 0.34	2.34	89			
O=C(CCCN1CCC2(CC1)C(=O)NCN2c1ccccc1)c1ccc(F)cc1 [Spiperone]	-74±48%	-65±12			54			
